Entries after “also recorded” stand apart in the source; their conditions may differ.
Experiments:
Type in all cases: in vivo
C57B/6 mice [1] = assay: Distal colon transit time (DCTT), glass bead expulsion; conditions: 3 mg/kg gavage
Experimental: We examined the time course of Compound 1 on distal colon transit time (DCTT) in C57B/6 mice to assess the colon motility. DCTT was performed by gently pushing a 2 mm glass bead into rectal 2 cm and then placing the mouse into a white box (time 0). The time that the glass bead was released from rectal is presented as DCTT (min). Mice were gavaged with 0 or 3 mg/kg of Compound 1 and DTCC was conducted at 30, 60, 90 and 120 min after the administration of Compound 1. […] The increase in the DCTT reached a peak at 90 min and returned at 2 hours after the administration of Compound 1 (FIG. 2).

[2] = Measurement of brain and plasma levels by LC/MS; conditions: mice, 10 mg/kg oral gavage, after 30 minutes
Experimental: Compound 1 was administered to 5 mice at a dose of 10 mg/kg as a solution in 50% propylene glycol by oral gavage (5 ml/kg), After 30 minutes, mice were sacrificed and plasma and brain were harvested. The concentration of Compound 1 in plasma and brain were measured by LC/MS.

IBS mice = assay: Pain sensitivity in IBS mouse model (VMR to colorectal distension)
Experimental: IBS visceral pain model, induced by neonatal rectal irritation. Colonic pain sensitivity to graded colorectal balloon distension (CRD, 15, 30, 50 and 70 mmHg) was determined by visceromotor response (VMR) measured by electromyography of external oblique muscle.

[3] = Stool composition (total stool weight, water content); conditions: stools collected for 3 hours
Experimental: After gavage of Compound 1 (3 and 10 mg/kg), stools were collected immediately after expulsion for 3 hours. The wet stools were weighted as total stool weight followed by dry at 65° C. for 24 hours and weight as dry stool weight. The percent of water content in the stool was calculated by (total stool weight-dry stool weight)/total stool weight x 100.

C57B/6 mice [4] = assay: Whole gut transit time (WGTT), carmine red gavage; conditions: 1, 3 and 10 mg/kg by gavage in 50% propylene glycol; statistically significant at all doses
Experimental: Dose responses of the effect of Compound 1 on the whole gut transit time (WGTT) were examined. Compound 1 (0, 1, 3 and 10 mg/kg) in 50% propylene glycol was administrated by gavage (5 ml/kg), followed by gavage of 0.2 ml carmine red solution (6% carmine red in 0.5% methylcellulose) into C57B/6 mice. Mice were then placed in a white cardboard box and the time was recorded as time 0. The color of stool was observed every 10 min until the red dye appeared in stool. The time that first red stool appears was recorded as the ending time. The difference between the ending time and time 0 is used to present WGTT (min).

**Q.** Which results are given for `O=C(O)c1nc2n(n1)-c1ccc(Cl)cc1C(c1ccccc1F)=NC2` [Compound 1, 8-Chloro-6-(2-fluorophenyl)-4H-[1,2,4]triazolo[1,5-a][1,4]benzodiazepine-2-carboxylic acid]?
**A.** time at which DCTT returned after administration (C57B/6 mice [1]): 2 h; time at which the increase in DCTT reached a peak (C57B/6 mice [1]): 90 min; effect on distal colon transit time (DCTT) (C57B/6 mice [1]; as early as 30 min after gavage): significantly increased the DCTT; average plasma concentration [2]: 1061+189 nM; concentration at 30 min ([2]; mouse, brain, limit of quantitation 62.5 nM): < 62.5 nM; effect on hyperalgesia (VMR to CRD) (IBS mice; IBS mice, 10 mg/kg, Two-Way ANOVA): significantly attenuated the hyperalgesia; also recorded: significantly reduced; effect on pain sensitivity (VMR to CRD) (IBS mice; control mice, 10 mg/kg (data not shown)): no effect was observed; effect on percent of water content in the stool ([3]; 3 mg/kg gavage): not; effect on total stool weight ([3]; 3 mg/kg gavage): not; effect on percent of water content in the stool ([3]; 10 mg/kg gavage): significantly reduced; effect on total stool weight ([3]; 10 mg/kg gavage): significantly reduced; effect on whole gut transit time (WGTT) (C57B/6 mice [4]): dose-dependently increased WGTT

— patent US10844070B2, “Peripherally restricted GABA positive allosteric modulators for the treatment of irritable bowel syndrome and other ailments of the peripheral nervous system” (The Johns Hopkins University, priority 2014, dated 2020)
